We go through 15 molecules from PubChem BioAssay (NCI).

Holding throughout (assay): DTP human tumour cell line panel, 48 h
The test system of assay [1] is A549 NSCLC.
In assay [2] the test system is HCT-15 colon.
Assay [3] has as its system HT29 colon.
Assay [4] has as its system IGROV1 ovarian.
The test system of assay [5] is K-562 leukemia.
The subject of assay [6] is M14 melanoma.
The subject of assay [7] is NCI-H226 lung.
Assay [8] has as its system NCI-H23 lung.
Assay [9] concerns RPMI-8226 leukemia.
Assay [10] has as its system SK-MEL-2 melanoma.

SMILES strings stand for the structures.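 Five concentrations, 48 hours, 96-well plates. At the GI50, growth is halved. The concentration for full growth arrest is given as TGI.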

Take `C=CCC12CC(=O)CCC1c1ccc(OC)cc1C2=O` (configuration not stated): the TGI in assay [1], in assay [2], in assay [3], in [4], in assay [5] and in [6] was above 100 µM throughout. Besides, the total growth inhibition concentration (TGI) in [7], in assay [8], in [9] and in assay [10] was above 100 µM in each case.

For the molecule `Nc1nc(Cl)nc2c1ncn2C1OC(CO)C(O)C1F` (configuration not stated), the GI50 is 0.144 µM in [1]; 5.96 µM in assay [2]; 0.445 µM in [3]; above 18 µM in assay [4]; 0.426 µM in assay [5]; 0.024 µM in assay [6]. The GI50 in assay [7] is 0.216 µM; in [8], 0.02 µM; in assay [9], 29.8 µM; in assay [10], above 100 µM. Besides, the TGI in [1] was above 100 µM; in assay [2], above 100 µM; in assay [3], above 100 µM; in [4] it was above 100 µM; in [5], above 100 µM; in assay [6], 0.0889 µM. For the same molecule, the concentration for total growth inhibition (TGI) in assay [7] is above 17.3 µM; in assay [8], 0.626 µM; in assay [9], above 100 µM; in [10] it was above 100 µM.

For `Brc1cc(C2OCCCO2)ccc1OCc1ccccc1`, the TGI in assay [1] was above 100 µM; in [2], above 100 µM; in assay [3], 33.2 µM; in assay [4], above 100 µM; in assay [5], above 100 µM; in assay [6] it was above 100 µM. Moreover, the concentration for total growth inhibition (TGI) in assay [7], in assay [8], in assay [9] and in assay [10] was above 100 µM each time.

For the molecule `CN1CCN(C(=O)c2ccc(NC(=O)Nc3ccc(-c4nc(N5CCOCC5)c5cccn5n4)cc3)cc2)CC1`, the GI50 is 0.0606 µM in assay [1]; 0.548 µM in assay [2]; 0.0487 µM in assay [3]; 0.0255 µM in [4]; 0.0963 µM in assay [5]; 0.0966 µM in assay [6]. In addition, the GI50 in [7] was 0.0306 µM; in assay [8], 0.0711 µM; in assay [9] it was 0.287 µM; in [10], 0.0596 µM. Moreover, the TGI stood at 12.1 µM in [1]; 12.6 µM in [2]; 1.2 µM in assay [4]; 14.7 µM in [5]; 10.3 µM in assay [6]; 0.345 µM in assay [7]. Moreover, the total growth inhibition concentration (TGI) in assay [8] was determined as 19 µM; in assay [9], 2.02 µM; in assay [10], 1.39 µM.

In the case of `COc1cc(Cl)c(CC(=O)c2c[nH]c3ccccc23)cc1OC`, the total growth inhibition concentration (TGI) in [1], in assay [2], in assay [3], in assay [4], in [5] and in assay [6] was above 100 µM in each case. The concentration for total growth inhibition (TGI) was 45.1 µM in [7], above 100 µM in [8], above 100 µM in assay [9] and above 100 µM in assay [10].

Consider `O=C1CC(c2cccc(Cl)c2)Oc2ccccc21` (configuration not stated), for which the TGI in [2] was 49 µM; in [3] it was 33.3 µM; in assay [4], 50.7 µM; in assay [5], 6.4 µM; in assay [6] it was 36 µM; in assay [7] it was 41.3 µM. The TGI in assay [8] was found to be 24.3 µM; in [9], 9.83 µM; in assay [10] it was 35.6 µM.

With `CC(C)[P+](c1ccccc1)(c1ccccc1)c1ccccc1`, the GI50 in assay [1] was 5.07 µM; in assay [2], above 100 µM; in assay [3], 5.8 µM; in [4] it was 14.3 µM; in assay [5], 2.4 µM; in [6] it was 11.2 µM. The GI50 in assay [7] is 5.69 µM; in assay [9], 1.72 µM; in assay [10], 3.77 µM. Besides, the TGI in assay [1], in assay [2], in [3], in assay [4], in assay [5] and in assay [6] was above 100 µM throughout. In addition, the total growth inhibition concentration (TGI) in [7] was above 100 µM; in assay [9], 23.6 µM; in [10], 21.9 µM.

Consider `Cc1cc(=O)[nH]c(NNC(C#N)c2ccccc2O)n1` (configuration not stated), for which the TGI in assay [1] is above 100 µM; in assay [2], above 100 µM; in [3] it was above 100 µM; in assay [4], above 100 µM; in [5], above 100 µM; in assay [7], 84.2 µM. Further, the TGI in [8], in assay [9] and in [10] was above 100 µM throughout.

With `CCN(CC)CCCNCc1cc(-c2ccccc2)nc2cc(Cl)ccc12`, the GI50 in [1] was 7.02 µM; in assay [2], 3.1 µM; in assay [3], 2.2 µM; in assay [5], 1.94 µM; in [6], 1.92 µM; in assay [7] it was 11.8 µM. Further, the values for the GI50 in assay [8], in [9] and in assay [10] were 12.5 µM, 2.46 µM and 2.32 µM, respectively. In addition, the total growth inhibition concentration (TGI) in assay [1] is 21.2 µM; in assay [2], 10.2 µM; in assay [3] it was 5.39 µM; in assay [5], 6.61 µM; in [6], 3.63 µM; in assay [7], 27.3 µM. Moreover, the TGI amounted to 27.3 µM in assay [8], 5.93 µM in assay [9] and 4.55 µM in assay [10].

`COc1cc(S(=O)(=O)Nc2nc(-c3ccc(N4C(=O)C(C)SC4c4ccccc4O)cc3)cs2)ccc1Cl` (configuration not stated): the GI50 is 39.7 µM in assay [1]; 37.3 µM in assay [2]; 56.5 µM in assay [3]; 33.4 µM in [5]; 38.6 µM in assay [6]; 20.3 µM in [7]. Besides, the GI50 was 42.2 µM in assay [8], 17.4 µM in assay [9] and 38.7 µM in assay [10]. In addition, the TGI in [1], in assay [2], in [3], in assay [5], in assay [6] and in assay [7] was above 100 µM in each case. The TGI in assay [8], in [9] and in [10] was above 100 µM throughout.

Regarding `CC(C)=Cc1cc(C)c2ccc(C)c3c2c1C(C)=C(O)C3=O`, the GI50 in assay [1] was 32 µM; in [2], above 100 µM; in assay [3] it was 28.7 µM; in assay [4] it was 21 µM; in [5] it was 10.3 µM; in [6], 20.1 µM. In addition, the results for the GI50 in assay [7], in assay [9] and in [10] were 30.8 µM, 4.38 µM and 25.7 µM, respectively. Besides, the TGI in [1] was above 100 µM; in [2] it was above 100 µM; in [3], above 100 µM; in [4] it was 71.6 µM; in assay [5] it was 24.7 µM; in [6], 45.7 µM. The total growth inhibition concentration (TGI) is 81 µM in assay [7], 24.7 µM in assay [9] and 82.3 µM in assay [10].

For the molecule `COc1cc(OC)c2c(=O)cc(-c3ccccc3OCc3ccccc3)oc2c1OC`, the GI50 is 63.5 µM in assay [1]; 16.2 µM in assay [2]; 28.9 µM in [3]; above 100 µM in [5]; 7.22 µM in assay [6]; 6.25 µM in assay [7]. Besides, the results for the GI50 in assay [8], in assay [9] and in [10] were 5.94 µM, 2.83 µM and above 100 µM, respectively. In addition, the TGI was above 100 µM in assay [1]; above 100 µM in assay [2]; above 100 µM in assay [3]; above 100 µM in assay [5]; 23.1 µM in [6]; 44 µM in assay [7]. In addition, the TGI is 23.4 µM in assay [8], above 100 µM in assay [9] and above 100 µM in assay [10].

Regarding `COc1cc(Cc2c(C)cc(OC)c3[nH]c4ccccc4c23)cc2c1[nH]c1ccccc12`, the GI50 is 5.73 µM in [1]; 6.89 µM in [2]; 7.84 µM in [3]; 9.03 µM in [4]; 7.31 µM in assay [5]; 5.12 µM in assay [6]. The GI50 in assay [7] is 4.67 µM; in assay [10] it was 3.97 µM. The concentration for total growth inhibition (TGI) in assay [1] was 16.7 µM; in [2], above 25 µM; in assay [3], above 25 µM; in assay [4], above 25 µM; in assay [5], above 25 µM; in [6], 11.8 µM. The concentration for total growth inhibition (TGI) was 12.8 µM in assay [7], above 25 µM in assay [9] and 11.6 µM in [10].

Turning to `COC(=O)c1onc(C2OC(C)(C)OC2C(O)COC(c2ccccc2)(c2ccccc2)c2ccccc2)c1C(=O)OC` (configuration not stated), the TGI in [1], in [2], in [3], in [5], in assay [6] and in assay [7] was above 100 µM throughout. Besides, the TGI in [8], in [9] and in assay [10] was above 100 µM each time.

As to `CCOC(=O)[C@@]12C(C)=CC(=O)O[C@]1(C)C1C(=O)NC(=O)C12` (some centres not stated), the total growth inhibition concentration (TGI) in assay [1], in assay [3], in [4], in assay [5], in [6] and in [7] was above 100 µM throughout. Further, the TGI in assay [8], in assay [9] and in assay [10] was above 100 µM throughout.

Usually TGI stands for the concentration giving total growth inhibition. As a reminder, the GI50 is the concentration that inhibits growth by half.
